Source: patent US20240148679A1, “METHODS AND COMPOSITIONS RELATED TO TREATMENT AND PREVENTION OF CANCER BY INHIBITION OF DGAT1 AND DGAT2” (Ohio State Innovation Foundation, priority 2019, published 2024)

Key:
[1] = system: U87/EGFRvIII cells-derived subcutaneous model; assay: U87/EGFRvIII subcutaneous xenograft model; assay type: in vivo, mice; details: 120 mg/kg/day
Protocol: (A-C) The effects of the DGAT1 inhibitor […] (120 mg/kg/day, oral gavage, details in Methods) in U87/EGFRvIII cells (1×10^6 cells/mouse)- or GBM30-derived subcutaneous models (4×10^6 cells/mouse), as shown by tumor growth rate in A and final isolated tumor images and weights in B. Tumor tissues were analyzed for LD presence by IF (TIP47 staining) and CPT1A and cleaved Caspase 3 levels by IHC in C. LD numbers and protein levels in tumor tissues were quantified by ImageJ and averaged from 5 separate areas in each tumor. The results for protein levels were normalized to control tumors (mean±SEM). Statistical significance was determined by one-way ANOVA. * P<0.01 for comparison with control group. Scale bars, m for IF, 40 m for IHC.
It was next examined whether pharmacological inhibition of DGAT1 is effective in inhibiting GBM growth using U87/EGFRvIII and GBM30 xenograft models. Tumor cells were implanted in mice flanks and started treatment with DGAT1 inhibitor A-922500 (120 mg/kg/day) when tumor reached approximately 80 mm3.
Intracranial xenograft models were generated using female athymic nude (NCr-nu/nu) mice (6-8 weeks of age obtained from OSU Target Validation Shared Resource). U87EGFRvIII (1×10^6) cells infected with shDGAT1-, shDGAT2- or scramble shRNA-expressing lentivirus for 48 hr (suspended in 100 μl PBS) were implanted into mice flank to generate subcutaneous model. For intracranial xenograft model, U87EGFRvIII-luc (1×10^5) or GBM30-luc (1×10^5) cells infected with shDGAT1-, shDGAT2- or scramble shRNA-expressing lentivirus for 48 hours (suspended in 5 μl PBS) were implanted into mouse brains. Mice were observed until they became moribund, at which point they were sacrificed. For drug treatment, U87EGFRvIII (1×10^6 cells suspended in 100 μl PBS) or GBM30 cells (4×10^6 suspended in 100 μl PBS and then mixed with 100 μl matrigel) were implanted in mouse flanks. DGAT1 inhibitor A-922500 (120 mg/kg/day, oral gavage) was formulated by 1% Tween 80 in PBS and administrated to mice when tumor size reached approximately 80 mm^3.

GBM cells (U251) = assay: Seahorse analysis of OCR and ECAR; assay type: cell-based, human; details: 20 μg/ml for 24 hours; for oxygen consumption rate (OCR): vs control cells
Protocol: (A, B) Transmission electron microscopy (TEM) analysis of the mitochondrial morphology in GBM cells (U251) treated with the DGAT1 inhibitor A-922500 (20 μg/ml) or DGAT2 inhibitor PF-06424439 (20 μg/ml) for 24 hr and shown in a or infected with shRNA-expressing lentivirus against DGAT1 for 48 hr and shown in b. Scale bar, 500 nm. Mitochondria are indicated by red arrows. Mitochondria length and loss of cristae (%) were quantified by ImageJ over 100 mitochondria in each group (mean±SEM). Statistical significance was determined by one-way ANOVA. * P<0.0001. (C, D) Representative fluorescence images of LDs (green) and mitochondria (red) in U251 cells treated with DGAT1 or DGAT2 inhibitor and shown in c or shRNA in (D) as in panels (A, B). LDs were stained with BODIPY 493/503 (green) and mitochondria were stained with MitoTracker Red. Nuclei were stained with Hoechst 33342 (blue). Scale bar, m. The percentage of cells with tubular or fragmented mitochondria was quantified by ImageJ in more than 100 cells (mean±SEM). Statistical significance was determined by one-way ANOVA. * P<0.001. (E, F) Analysis of mitochondrial activity by measuring oxygen consumption rate (OCR) in U251 cells treated with DGAT1/DGAT2 inhibitors or shRNA as in panels (A, B). Lower panels show the quantification of relative basal and maximal OCR change (details please see Methods). Data represent the mean±SD from 3 independent experiments. Basal OCR was determined as OCR before oligomycin subtract OCR after rotenone addition, and maximal OCR was determined as OCR after FCCP subtract OCR after rotenone addition. Statistical significance was determined by one-way ANOVA. * P<0.0001. (G, H) Representative fluorescence images of reactive oxygen species (ROS) production and mitochondria (green) in U251 cells treated with DGAT1/DGAT2 inhibitors or shRNA as in panels (A, B). ROS were detected with CellROX Deep Red, and mitochondria were stained with MitoTracker Green. Nuclei were stained with Hoechst 33342 (blue). Scale bar, 10 m. ROS levels were quantified by ImageJ in more than 100 cells (mean±SD). Statistical significance was determined by one-way ANOVA. * P<0.0001. (I, J) Representative fluorescence images of ROS levels (red) detected by CellROX Deep Red in U251 cells treated with the DGAT1 inhibitor or shRNA as in panels a and b in the presence or absence of N-acetyl-cysteine (NAC, 1 mM). Nuclei were stained with Hoechst 33342 (blue). Scale bar, 10 m. ROS levels were quantified by ImageJ in more than 100 cells (mean±SD) (right upper panels). Live and dead cells were counted by trypan blue staining after treatment for 3 days (mean±SD, n=3) (right bottom panels). Statistical significance was determined by one-way ANOVA. * P<0.0001. […]

GBM cells = assay: GBM cell death, trypan blue counting; assay type: cell-based, human; details: single inhibitor, 3 days

SMILES | CPT1A expression in tumor tissues [1] | LD formation in tumor tissues (TIP47) [1] | cleaved caspase 3 levels in tumor tissues [1] | tumor growth ([1]; oral gavage) | tumor weight ([1]; oral gavage) | tumor growth ([1]; oral gavage, listed as A-900225) | extracellular acidification rate (ECAR) (GBM cells (U251)) | oxygen consumption rate (OCR) (GBM cells (U251)) | GBM cell death (GBM cells)
O=C(Nc1ccccc1)Nc1ccc(-c2ccc(C(=O)[C@@H]3CCC[C@H]3C(=O)O)cc2)cc1 [A-922500] | significantly increased CPT1A expression | dramatically suppressed LD formation | markedly elevated cleaved caspase 3 levels | significantly suppressed tumor growth | dramatic reduction in tumor weight | dramatically suppresses GBM tumor growth | did not affect | markedly reduced | greatly induced marked GBM cell death
CS(=O)(=O)O.O=C([C@@H]1CCCN(c2ccc3[nH]c(C4(n5cc(Cl)cn5)CC4)nc3n2)C1)N1CCCC1 [PF-06424439] |  |  |  |  |  |  | did not affect | no reduction was observed | 
